Where two headings read alike, the source gives them in different places.
Tests used:
5-HT transporter = biological target: T1, 5-HT transporter (Rattus norvegicus, UniProt P31652); assay: Rat Brain ^3 H-Paroxetine Binding Assay (RB 5HT Transporter)
T1 construct: frontal cortical membranes prepared from male S.D. rats; from tissue; host or cells: frontal cortical membranes of male S.D. (Sprague-Dawley) rats
From the text: The 5-HT transporter affinity of the compounds of this invention was established in accordance with standard pharmaceutically accepted test procedures with representative compounds as follows:
Rat Brain ^3 H-Paroxetine Binding Assay (RB 5HT Transporter):
The following assay was used to determine a compound's affinity for the 5-HT transporter.
A protocol similar to that used by Cheetham et. al. (Neuropharmacol. 1993, 32, 737) was used. Briefly, frontal cortical membranes prepared from male S.D. rats were incubated with ^3 H-paroxetine (0.1 nM) for 60 min. at 25° C. All tubes also contained either vehicle, test compound (one to eight concentrations), or a saturating concentration of fluoxetine (10 μM) to define […]. All reactions are terminated by the addition of ice cold Tris buffer followed by rapid filtration using a Tom Tech filtration device to separate bound from free ^3 H-paroxetine. Bound radioactivity was quantitated using a Wallac 1205 Beta Plate® counter. Nonlinear regression analysis was used to determine IC50 values which were converted to Ki values using the method of Cheng and Prusoff (Biochem. Pharmacol. 1973, 22, 3099): [formula]

Human 5-HT Transporter = biological target: T2, Human 5-HT Transporter (Homo sapiens, UniProt P31645); assay: Inhibition of ^3 H-5-HT Uptake by cells Possessing the Human 5-HT Transporter (HC 5HT Transporter); type: cell-based
T2 construct: endogenous in cells; host or cells: Jar cells (human carcinoma cell line), treated with staurosporine to raise expression
T2 sequence (P31645 whole entry): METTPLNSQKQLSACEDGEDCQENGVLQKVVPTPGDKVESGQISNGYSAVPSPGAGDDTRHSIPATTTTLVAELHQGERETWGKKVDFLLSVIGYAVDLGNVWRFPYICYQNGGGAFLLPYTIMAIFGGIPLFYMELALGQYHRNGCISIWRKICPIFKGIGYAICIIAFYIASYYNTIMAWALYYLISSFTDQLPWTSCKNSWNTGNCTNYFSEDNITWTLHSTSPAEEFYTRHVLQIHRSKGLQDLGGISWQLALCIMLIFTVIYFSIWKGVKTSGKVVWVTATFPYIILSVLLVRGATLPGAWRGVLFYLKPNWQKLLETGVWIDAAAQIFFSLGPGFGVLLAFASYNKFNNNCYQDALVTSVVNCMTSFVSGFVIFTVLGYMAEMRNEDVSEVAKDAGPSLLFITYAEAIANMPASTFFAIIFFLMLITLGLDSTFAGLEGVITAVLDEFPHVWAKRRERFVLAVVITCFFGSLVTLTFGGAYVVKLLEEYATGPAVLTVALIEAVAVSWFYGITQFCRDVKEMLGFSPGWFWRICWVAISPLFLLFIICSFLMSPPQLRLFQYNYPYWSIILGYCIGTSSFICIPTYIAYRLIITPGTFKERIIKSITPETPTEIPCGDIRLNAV
Method: [Staurosporine greatly increases the expression of the 5-HT-transporter.] On the day of assay, vehicle, excess of fluoxetine, or test compound is added to various wells on the plate. All wells then receive ^3 H-5-HT and are incubated at 37° C. for 5 min. The wells are then washed with ice cold 50 mM Tris HCl (pH 7.4) buffer and aspirated to remove free ^3 H-5-HT. 25 μl of 0.25 M NaOH is then added to each well to lyse the cells and 75 μl scintillation cocktail (Microscint™ 20) added prior to quantitation on a Packard TopCount machine. Tubes with vehicle represent total possible uptake, radioactivity counted in tubes with fluoxetine represent nonspecific binding/uptake and is subtracted from the total possible uptake to give total possible specific uptake. This nonspecific binding (usual low in number) is then subtracted from the counts obtained in wells with various test compounds (or different concentrations of test drug) to give specific uptake in the presence of drug. Specific uptake is then expressed as a % of control values and is analyzed using nonlinear regression analysis (Prizm) to determine IC50 values. If the compound is active at inhibiting 5-HT uptake, its counts will be close to that obtained with fluoxetine.

[1] = rat frontal cortical membranes; ^3 H-paroxetine (0.1 nM), 60 min, 25° C.; n = 1; read-out: RB 5HT Transporter Ki
[2] = Jar cells (human carcinoma), staurosporine treated, ^3 H-5-HT uptake, 37° C., 5 min, n = 1, read-out: HC 5HT Transporter IC50
[3] = RB 5HT Transporter Ki, rat frontal cortical membranes; ^3 H-paroxetine (0.1 nM), 60 min, 25° C.; n = 1

T1 sequence (P31652 whole entry): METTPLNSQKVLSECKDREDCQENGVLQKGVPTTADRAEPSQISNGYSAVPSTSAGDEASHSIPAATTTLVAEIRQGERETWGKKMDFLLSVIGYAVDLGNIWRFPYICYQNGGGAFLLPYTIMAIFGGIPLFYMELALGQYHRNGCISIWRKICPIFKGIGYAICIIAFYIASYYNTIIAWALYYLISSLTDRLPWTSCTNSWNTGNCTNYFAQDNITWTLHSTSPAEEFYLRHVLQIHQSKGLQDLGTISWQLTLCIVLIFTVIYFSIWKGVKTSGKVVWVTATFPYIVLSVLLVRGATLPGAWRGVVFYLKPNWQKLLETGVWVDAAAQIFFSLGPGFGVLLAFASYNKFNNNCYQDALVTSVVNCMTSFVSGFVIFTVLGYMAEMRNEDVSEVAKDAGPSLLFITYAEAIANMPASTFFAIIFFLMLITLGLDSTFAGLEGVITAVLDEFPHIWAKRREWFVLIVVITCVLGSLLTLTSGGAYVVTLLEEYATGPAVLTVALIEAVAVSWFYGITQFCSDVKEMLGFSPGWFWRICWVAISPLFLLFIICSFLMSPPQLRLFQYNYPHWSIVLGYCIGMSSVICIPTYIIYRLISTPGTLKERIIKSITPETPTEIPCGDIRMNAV

| Compound | Ki (5-HT transporter; [1]) | IC50 (Human 5-HT Transporter; [2]) | Ki (5-HT transporter; [3]) | other results |
| --- | --- | --- | --- | --- |
| 2-{cis-4-[3-(3-Methoxy-phenoxy)-azetidin-1-yl]-cyclohexyl}-1H-indole [Example 6a] | 120 nM |  |  |  |
| Fc1cccc(OC2CN(C3CCC(c4c[nH]c5cc(F)ccc45)CC3)C2)c1 (single isomer, unassigned) [Example 10a, 6-Fluoro-3-{4-[3-(3-fluoro-phenoxy)-azetidin-1-yl]-cyclohexyl}-1H-indole] | 190 nM |  |  |  |
| Fc1cccc(OC2CN(C3CCC(c4c[nH]c5cc(F)ccc45)CC3)C2)c1 (single isomer, unassigned) [Example 10b, 6-Fluoro-3-{4-[3-(3-fluoro-phenoxy)-azetidin-1-yl]-cyclohexyl}-1H-indole] | 73 nM | 4600 nM |  |  |
| COc1ccccc1NC1CN([C@H]2CC[C@@H](c3c[nH]c4ccc(F)cc43)CC2)C1 [Example 1a] | 15 nM | 962 nM |  |  |
| COc1ccccc1NC1CN([C@H]2CC[C@H](c3c[nH]c4ccc(F)cc43)CC2)C1 [Example 1b] | 17 nM | 591 nM |  |  |
| N#Cc1ccc2[nH]cc([C@H]3CC[C@@H](N4CC(Oc5cccc(F)c5)C4)CC3)c2c1 [Example 2a, 3-(cis-4-[3-(3-Fluoro-phenoxy)-azetidin-1-yl]-cyclohexyl)-1H-indole-5-carbonitrile] | 16 nM | 337 nM |  |  |
| N#Cc1ccc2[nH]cc([C@H]3CC[C@H](N4CC(Oc5cccc(F)c5)C4)CC3)c2c1 [Example 2b, 3-(trans-4-[3-(3-Fluoro-phenoxy)-azetidin-1-yl]-cyclohexyl)-1H-indole-5-carbonitrile] | 48 nM | 282 nM |  |  |
| COc1cccc(OC2CN([C@H]3CC[C@@H](c4c[nH]c5ccc(C#N)cc54)CC3)C2)c1 [Example 3a] |  |  | 2.38 nM | IC50 (Human 5-HT Transporter): 91 nM |
| COc1cccc(OC2CN([C@H]3CC[C@H](c4c[nH]c5ccc(C#N)cc54)CC3)C2)c1 [Example 3b] |  |  | 11 nM | IC50 (Human 5-HT Transporter): 232 nM |
| Fc1cccc(NC2CN([C@H]3CC[C@@H](c4c[nH]c5ccc(F)cc54)CC3)C2)c1 [Example 4, {1-[cis-4-(5-Fluoro-1H-indol-3-yl)-cyclohexyl]-azetidin-3-yl}-(3-fluoro-phenyl)-amine] | 18 nM | 6390 nM |  |  |
| COc1ccccc1NC1CN([C@H]2CC[C@@H](c3c[nH]c4ccccc43)CC2)C1 [Example 5a, {1-[cis-4-(1H-Indol-3-yl)-cyclohexyl]-azetidin-3-yl}-(2-methoxy-phenyl)-amine] |  |  | 124 nM |  |
| COc1ccccc1NC1CN([C@H]2CC[C@H](c3c[nH]c4ccccc43)CC2)C1 [Example 5b, {1-[trans-4-(1H-Indol-3-yl)-cyclohexyl]-azetidin-3-yl}-(2-methoxy-phenyl)-amine] |  |  | 34 nM |  |
| Fc1cccc(OC2CN([C@H]3CC[C@@H](c4c[nH]c5ccc(F)cc54)CC3)C2)c1 [Example 7a, 5-Fluoro-3-{cis-4-[3-(3-fluoro-phenoxy)-azetidin-1-yl]-cyclohexyl}-1H-indole] | 257 nM |  |  |  |
| Fc1cccc(OC2CN([C@H]3CC[C@H](c4c[nH]c5ccc(F)cc54)CC3)C2)c1 [Example 7b, 5-Fluoro-3-{trans-4-[3-(3-fluoro-phenoxy)-azetidin-1-yl]-cyclohexyl}-1H-indole] |  |  |  | IC50 (Human 5-HT Transporter; read-out: HC 5HT Transporter IC50, Jar cells (human carcinoma), staurosporine treated, ^3 H-5-HT uptake, 37° C., 5 min, n = 1): 6000 nM; Ki (5-HT transporter; read-out: RB 5HT Transporter Ki; rat frontal cortical membranes; ^3 H-paroxetine (0.1 nM), 60 min, 25° C.; n = 1): 68 nM |
| COc1cccc(OC2CN([C@H]3CC[C@@H](c4c[nH]c5ccc(F)cc54)CC3)C2)c1 [Example 8a, 5-Fluoro-3-{cis-4-[3-(3-methoxy-phenoxy)-azetidin-1-yl]-cyclohexyl}-1H-indole] | 24 nM | 6000 nM |  |  |
| COc1cccc(OC2CN([C@H]3CC[C@H](c4c[nH]c5ccc(F)cc54)CC3)C2)c1 [Example 8b, 5-Fluoro-3-{trans-4-[3-(3-methoxy-phenoxy)-azetidin-1-yl]-cyclohexyl}-1H-indole] | 45 nM | 1500 nM |  |  |
| Fc1cccc(OC2CN([C@H]3CC[C@@H](c4c[nH]c5ccccc54)CC3)C2)c1 [Example 9a, 3-{4-[3-(3-Fluoro-phenoxy)-azetidin-1-yl]-cyclohexyl}-1H-indole] |  |  | 275 nM |  |
| Fc1cccc(OC2CN([C@H]3CC[C@H](c4c[nH]c5ccccc54)CC3)C2)c1 [Example 9b, 3-{4-[3-(3-Fluoro-phenoxy)-azetidin-1-yl]-cyclohexyl}-1H-indole] |  |  | 455 nM |  |

Source: patent US6245799A, “[(Indol-3-yl)-cycloalkyl]-3-substituted azetidines for the treatment of central nervous system disorders” (American Home Products Corp, priority 2000, dated 2001)
